Experimental data as given in paper PMC4192288 (Endocrinology, 2013).
pIC50: −log10 of the molar value.

Target: T1, 11β-hydroxysteroid dehydrogenase type 1 (11β-HSD1) (Mus musculus, UniProt P50172)
T1 construct: gene Hsd11b1; recombinant 11β-HSD1
Experiment: HTRF cortisol competitive assay with recombinant […]β-HSD1; also […] ex vivo inhibition in mouse liver
Format: biochemical

T1 sequence (P50172 whole entry): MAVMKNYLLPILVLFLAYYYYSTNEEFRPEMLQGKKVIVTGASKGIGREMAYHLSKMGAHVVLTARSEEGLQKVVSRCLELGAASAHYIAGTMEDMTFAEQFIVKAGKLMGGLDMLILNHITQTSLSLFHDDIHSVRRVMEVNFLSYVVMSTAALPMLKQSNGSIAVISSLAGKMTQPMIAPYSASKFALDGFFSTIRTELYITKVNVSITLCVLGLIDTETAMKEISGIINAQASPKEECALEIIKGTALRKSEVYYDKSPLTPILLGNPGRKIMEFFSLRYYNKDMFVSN

pIC50: 7.52
SMILES: F[C@H]1C[C@](c2ccc(Cl)cc2)(c2nnc(C3CC3)n2C2CC2)C1 [MK-0916, 3-[1-(4-chlorophenyl)-3-fluorocyclobutyl]-4,5-dicyclopropyl-1,2,4-triazole]
